# Measured values from the supplement of paper PMC10307832.
# Key:
# Assay in all cases: relative viability (nuclei count vs DMSO), 5 days (fraction); higher = more cells survive
# [1] = tested on: 201T
# Method in brief: (§1)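 Lung cancer cell lines were seeded in 1536-well plates and dosed by pin tool the next day, with either a single drug or a fixed anchor-drug dose combined with five library-drug doses (not always all listed) spaced in √10 steps. Five days later, one step fixed the cells and stained their nuclei (final 0.05% Triton X-100, 1% formaldehyde, 1 ug/ml Hoechst), and nuclei were counted on 4× images. Relative viability is the nuclei count in treated wells divided by the count in vehicle wells, and each value is the median of duplicate plates.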
# [2] = tested on: COR-L 105
# Method in brief: as §1
# [3] = tested on: COR-L23
# Method in brief: as §1
# [4] = tested on: EMC-BAC-2
# Method in brief: as §1
# [5] = tested on: HCC-15
# Method in brief: as §1
# [6] = tested on: HCC-366
# Method in brief: as §1
# [7] = tested on: LC-2-ad
# Method in brief: as §1
# [8] = tested on: NCI-H1437
# Method in brief: as §1
# [9] = tested on: NCI-H1755
# Method in brief: as §1
# [10] = tested on: NCI-H1792
# Method in brief: as §1
# [11] = tested on: NCI-H1915
# Method in brief: as §1
# [12] = tested on: NCI-H2023
# Method in brief: as §1
# [13] = tested on: NCI-H2347
# Method in brief: as §1
# [14] = tested on: NCI-H23
# Method in brief: as §1
# [15] = tested on: NCI-H358
# Method in brief: as §1
# [16] = tested on: NCI-H650
# Method in brief: as §1
# [17] = tested on: PC-14
# Method in brief: as §1
# [18] = tested on: SK-MES-1
# Method in brief: as §1
# [19] = tested on: NCI-H2009
# Method in brief: as §1
structure (smiles),measurement,setting,value
Cc1cn(-c2cc(NC(=O)c3ccc(C)c(Nc4nccc(-c5cccnc5)n4)c3)cc(C(F)(F)F)c2)cn1 [Nilotinib] + C[C@@H](Oc1cc(-c2cnn(C3CCNCC3)c2)cnc1N)c1c(Cl)ccc(F)c1Cl [Crizotinib] (partner 1 µM),relative viability,[1]; first compound 0.001 µM,1.01
same,relative viability,[1]; first compound 0.003162 µM,1.07
same,relative viability,[1]; first compound 0.01 µM,0.91
same,relative viability,[1]; first compound 0.1 µM,1.07
same,relative viability,[2]; first compound 0.001 µM,0.821
same,relative viability,[2]; first compound 0.01 µM,0.796
same,relative viability,[2]; first compound 0.03162 µM,0.668
same,relative viability,[2]; first compound 0.1 µM,0.662
same,relative viability,[3]; first compound 0.001 µM,0.601
same,relative viability,[3]; first compound 0.003162 µM,0.625
same,relative viability,[3]; first compound 0.01 µM,0.848
same,relative viability,[3]; first compound 0.03162 µM,0.465
same,relative viability,[3]; first compound 0.1 µM,0.625
same,relative viability,[4]; first compound 0.001 µM,0.676
same,relative viability,[4]; first compound 0.003162 µM,0.682
same,relative viability,[4]; first compound 0.01 µM,0.795
same,relative viability,[4]; first compound 0.03162 µM,0.673
same,relative viability,[4]; first compound 0.1 µM,0.753
same,relative viability,[5]; first compound 0.001 µM,0.723
same,relative viability,[5]; first compound 0.003162 µM,0.96
same,relative viability,[5]; first compound 0.01 µM,1.1
same,relative viability,[5]; first compound 0.03162 µM,0.58
same,relative viability,[5]; first compound 0.1 µM,0.687
same,relative viability,[6]; first compound 0.001 µM,0.484
same,relative viability,[6]; first compound 0.003162 µM,0.627
same,relative viability,[6]; first compound 0.01 µM,1.38
same,relative viability,[6]; first compound 0.03162 µM,0.389
same,relative viability,[6]; first compound 0.1 µM,0.609
same,relative viability,[7]; first compound 0.001 µM,0.43
same,relative viability,[7]; first compound 0.003162 µM,0.436
same,relative viability,[7]; first compound 0.01 µM,0.449
same,relative viability,[7]; first compound 0.03162 µM,0.42
same,relative viability,[7]; first compound 0.1 µM,0.522
same,relative viability,[8]; first compound 0.001 µM,0.789
same,relative viability,[8]; first compound 0.003162 µM,1.25
same,relative viability,[8]; first compound 0.01 µM,1.13
same,relative viability,[8]; first compound 0.03162 µM,0.705
same,relative viability,[8]; first compound 0.1 µM,0.866
same,relative viability,[9]; first compound 0.001 µM,0.778
same,relative viability,[9]; first compound 0.003162 µM,0.962
same,relative viability,[9]; first compound 0.01 µM,1.2
same,relative viability,[9]; first compound 0.03162 µM,0.666
same,relative viability,[9]; first compound 0.1 µM,0.745
same,relative viability,[10]; first compound 0.001 µM,0.967
same,relative viability,[10]; first compound 0.01 µM,1.15
same,relative viability,[10]; first compound 0.1 µM,1.16
same,relative viability,[11]; first compound 0.001 µM,0.73
same,relative viability,[11]; first compound 0.003162 µM,1.18
same,relative viability,[11]; first compound 0.01 µM,1.24
same,relative viability,[11]; first compound 0.03162 µM,0.787
same,relative viability,[11]; first compound 0.1 µM,0.848
same,relative viability,[12]; first compound 0.001 µM,0.659
same,relative viability,[12]; first compound 0.003162 µM,0.683
same,relative viability,[12]; first compound 0.01 µM,0.852
same,relative viability,[12]; first compound 0.03162 µM,0.506
same,relative viability,[12]; first compound 0.1 µM,0.569
same,relative viability,[13]; first compound 0.001 µM,0.698
same,relative viability,[13]; first compound 0.003162 µM,0.731
same,relative viability,[13]; first compound 0.01 µM,0.686
same,relative viability,[13]; first compound 0.03162 µM,0.629
same,relative viability,[13]; first compound 0.1 µM,0.853
same,relative viability,[14]; first compound 0.001 µM,0.471
same,relative viability,[14]; first compound 0.003162 µM,0.442
same,relative viability,[14]; first compound 0.01 µM,0.6
same,relative viability,[14]; first compound 0.03162 µM,0.328
same,relative viability,[14]; first compound 0.1 µM,0.378
same,relative viability,[15]; first compound 0.001 µM,0.447
same,relative viability,[15]; first compound 0.003162 µM,0.473
same,relative viability,[15]; first compound 0.01 µM,0.407
same,relative viability,[15]; first compound 0.03162 µM,0.469
same,relative viability,[15]; first compound 0.1 µM,0.735
same,relative viability,[16]; first compound 0.001 µM,0.637
same,relative viability,[16]; first compound 0.003162 µM,0.551
same,relative viability,[16]; first compound 0.01 µM,0.844
same,relative viability,[16]; first compound 0.03162 µM,0.601
same,relative viability,[16]; first compound 0.1 µM,0.715
same,relative viability,[17]; first compound 0.001 µM,0.871
same,relative viability,[17]; first compound 0.003162 µM,0.941
same,relative viability,[17]; first compound 0.01 µM,1.11
same,relative viability,[17]; first compound 0.03162 µM,0.861
same,relative viability,[17]; first compound 0.1 µM,0.945
same,relative viability,[18]; first compound 0.003162 µM,1.09
same,relative viability,[18]; first compound 0.01 µM,1.06
same,relative viability,[18]; first compound 0.03162 µM,0.994
same,relative viability,[18]; first compound 0.1 µM,0.982
CN1CCN(CCOc2cc(OC3CCOCC3)c3c(Nc4c(Cl)ccc5c4OCO5)ncnc3c2)CC1 [Saracatinib] + CC(C)C[C@H](NC(=O)[C@H](Cc1ccccc1)NC(=O)c1cnccn1)B(O)O [Bortezomib] (partner 0.002 µM),relative viability,[1]; first compound 0.02 µM,1.07
same,relative viability,[1]; first compound 0.2 µM,1
same,relative viability,[1]; first compound 0.6325 µM,1.04
same,relative viability,[1]; first compound 2 µM,0.848
same,relative viability,[2]; first compound 0.02 µM,1.11
same,relative viability,[2]; first compound 0.2 µM,0.699
same,relative viability,[2]; first compound 0.6325 µM,0.707
same,relative viability,[2]; first compound 2 µM,0.432
same,relative viability,[3]; first compound 0.02 µM,0.98
same,relative viability,[3]; first compound 0.2 µM,0.723
same,relative viability,[3]; first compound 0.6325 µM,1.09
same,relative viability,[3]; first compound 2 µM,1.05
same,relative viability,[4]; first compound 0.02 µM,1.02
same,relative viability,[4]; first compound 0.2 µM,1
same,relative viability,[4]; first compound 0.6325 µM,1.19
same,relative viability,[4]; first compound 2 µM,1.03
same,relative viability,[5]; first compound 0.02 µM,0.969
same,relative viability,[5]; first compound 0.2 µM,0.986
same,relative viability,[5]; first compound 0.6325 µM,1.04
same,relative viability,[5]; first compound 2 µM,0.918
same,relative viability,[6]; first compound 0.02 µM,1.04
same,relative viability,[6]; first compound 0.6325 µM,0.935
same,relative viability,[6]; first compound 2 µM,0.769
same,relative viability,[7]; first compound 0.02 µM,1.15
same,relative viability,[7]; first compound 0.6325 µM,1.12
same,relative viability,[7]; first compound 2 µM,0.843
same,relative viability,[8]; first compound 0.02 µM,0.502
same,relative viability,[8]; first compound 0.2 µM,0.505
same,relative viability,[8]; first compound 0.6325 µM,0.437
same,relative viability,[8]; first compound 2 µM,0.453
same,relative viability,[9]; first compound 0.02 µM,1.02
same,relative viability,[9]; first compound 0.2 µM,0.792
same,relative viability,[9]; first compound 0.6325 µM,1.08
same,relative viability,[9]; first compound 2 µM,0.83
same,relative viability,[10]; first compound 0.02 µM,0.956
same,relative viability,[10]; first compound 0.2 µM,0.344
same,relative viability,[10]; first compound 0.6325 µM,1.06
same,relative viability,[10]; first compound 2 µM,0.914
same,relative viability,[11]; first compound 0.02 µM,0.959
same,relative viability,[11]; first compound 0.2 µM,0.813
same,relative viability,[11]; first compound 0.6325 µM,0.978
same,relative viability,[11]; first compound 2 µM,0.886
same,relative viability,[19]; first compound 0.02 µM,1.01
same,relative viability,[19]; first compound 0.2 µM,0.912
same,relative viability,[19]; first compound 0.6325 µM,1.03
same,relative viability,[19]; first compound 2 µM,0.747
same,relative viability,[12]; first compound 0.02 µM,1.1
same,relative viability,[12]; first compound 0.2 µM,0.902
same,relative viability,[12]; first compound 0.6325 µM,1.05
same,relative viability,[12]; first compound 2 µM,0.906
same,relative viability,[13]; first compound 0.02 µM,1.01
same,relative viability,[13]; first compound 0.2 µM,0.921
same,relative viability,[13]; first compound 0.6325 µM,1.2
same,relative viability,[13]; first compound 2 µM,0.893
same,relative viability,[14]; first compound 0.02 µM,1.09
same,relative viability,[14]; first compound 0.6325 µM,0.95
same,relative viability,[14]; first compound 2 µM,1.12
same,relative viability,[16]; first compound 0.02 µM,0.925
same,relative viability,[16]; first compound 0.2 µM,0.751
same,relative viability,[16]; first compound 0.6325 µM,0.947
same,relative viability,[16]; first compound 2 µM,0.799
same,relative viability,[17]; first compound 0.02 µM,0.941
same,relative viability,[17]; first compound 0.2 µM,0.685
same,relative viability,[17]; first compound 0.6325 µM,0.261
same,relative viability,[17]; first compound 2 µM,0.169
